From BindingDB's records for doi:10.1021/jm050019i (University of Illinois At Chicago, 2005)

Molecular target: T1, Dimer of Gag-Pol polyprotein [501-599,Q508K,L534I,L564I,C568A,C596A] (Human immunodeficiency virus 1, UniProt P03367, C568A/C596A/L534I/L564I/Q508K)
T1 construct: 501-599
Assay: Protease Inhibition Assay
Conditions: pH 6.4; 25 °C
Protocol: The Ki values were determined using fluorogenic substrate, 2-(aminobenzoyl)-Thr-Ile-Nle-Phe(p-NO2)-Gln-ArgNH2. A standard curve relating changes in fluorescent intensity to changes in concentration of product was used to convert fluorescent changes into molar velocities. The amount of cleavage was determined by HPLC.

## COc1ccc(S(=O)(=O)N(CC(C)C)C[C@@H](O)[C@@H]2CCCC/C=C\COc3c(O)cccc3C(=O)N2)cc1 [(2R)-2-hydroxy-2-[(9S)-15-hydroxy-11-oxo-2,5,6,7,8,9,10,11-octahydro-1,10-benzoxazacyclotridecin-9-yl]-N-(4-methoxyphenyl)-N-(2-methylpropyl)ethane-1-sulfonamido]
  Ki: 2 nM
